Experimental data reported in paper PMC11111408, “Concurrent inhibition of oncogenic and wild-type RAS-GTP for cancer therapy” (Nature, 2024).
“And” between values parts separate entries of the source, which are not always exact repeats. Equal values may be shown once. Read-outs that look alike come from different tables or passages of the source.

Tested on: AsPC-1 and NCI-H441 cells
Experiment: pERK (MSD) and proliferation (CTG) in AsPC-1 and NCI-H441 cells, CYPA inhibitor co-treatment or PPIA KO;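 as to Proliferation inhibition with CYPA inhibitor competition: luminescence as % of CYPA inhibitor-only control with 3 mM sanglifehrin A competitor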
Format: cell-based, human
Conditions: for Proliferation, RMC-7977 with or without CYPA inhibitor (panel title not shown): ASPC1, RMC-7977 alone

`CCn1c(-c2cc(N3CCN(C4CC4)CC3)cnc2[C@H](C)OC)c2c3cc(ccc31)-c1csc(n1)C[C@H](NC(=O)[C@H]1[C@@H]3COC[C@@H]31)C(=O)N1CCC[C@H](N1)C(=O)OCC(C)(C)C2` [RMC-7977] was tested, and the “Proliferation inhibition with CYPA inhibitor competition” value (“Proliferation inhibition” below) (ASPC1, RMC-7977 0.0152 nM) was 90.9654, the “pERK signal remaining (% of control) with CYPA inhibitor competition” value (ASPC1, RMC-7977 0.0152 nM) was 120.616 and 135.308 and 125.91 and 115.107 and the “Proliferation inhibition” value (ASPC1, RMC-7977 0.0457 nM) was 85.8573. For the same molecule, the “pERK signal remaining (% of control) with CYPA inhibitor competition” value (ASPC1, RMC-7977 0.0457 nM) was 139.301 and 149.714 and 121.136 and 102.253, the “Proliferation inhibition” value (ASPC1, RMC-7977 0.41 nM) was 72.6185 and 81.3976 and the “pERK signal remaining (% of control) with CYPA inhibitor competition” value (ASPC1, RMC-7977 0.41 nM) was 110.343 and 126.372 and 94.9104 and 97.1292. For the same molecule, the “Proliferation inhibition” value (ASPC1, RMC-7977 3.70 nM) was 35.3653 and 35.6028, the “Proliferation inhibition” value (ASPC1, RMC-7977 11.11 nM) was 15.7797 and 21.3117 and the “Proliferation inhibition” value (ASPC1, RMC-7977 33.33 nM) was 8.746 and 8.58. The “Proliferation inhibition” value (ASPC1, RMC-7977 100.00 nM) was 4.002 and 7.934, the “Proliferation, RMC-7977 with or without CYPA inhibitor (panel title not shown)” value (0.0152 nM, 15.2 pM) was 91.3484 and the “Proliferation, RMC-7977 with or without CYPA inhibitor (panel title not shown)” value (0.0457 nM, 45.7 pM) was 92.4729. For the same molecule, the “Proliferation, RMC-7977 with or without CYPA inhibitor (panel title not shown)” value (0.41 nM, 0.00041 µM) was 80.9316, the “Proliferation, RMC-7977 with or without CYPA inhibitor (panel title not shown)” value (3.70 nM, 0.0037 µM) was 50.3479 and the “Proliferation, RMC-7977 with or without CYPA inhibitor (panel title not shown)” value (11.11 nM, 0.01111 µM) was 24.3804. For the same molecule, the “Proliferation, RMC-7977 with or without CYPA inhibitor (panel title not shown)” value (33.33 nM, 0.03333 µM) was 12.3077, the “Proliferation, RMC-7977 with or without CYPA inhibitor (panel title not shown)” value (100.00 nM, 0.1 µM) was 7.228 and the “Proliferation, RMC-7977 with or without CYPA inhibitor (panel title not shown)” value (300.00 nM, 0.3 µM) was 13.3948. For the same molecule, the “Proliferation, RMC-7977 with or without CYPA inhibitor (panel title not shown)” value ([…], 5.08 pM) was 94.1273, the activity at 0.0037 µM (Homo sapiens, ASPC1, read-out: Proliferation inhibition in PPIA KO cells treated with RMC-7977, AsPC-1, 3.70 nM) was 33% and the activity at 0.01111 µM (Homo sapiens, ASPC1, read-out: Proliferation inhibition in PPIA KO cells treated with RMC-7977, AsPC-1, 11.11 nM) was 17.6%. For the same molecule, the activity at 0.03333 µM (Homo sapiens, ASPC1, read-out: Proliferation inhibition in PPIA KO cells treated with RMC-7977, AsPC-1, 33.33 nM) was 8.78%, the activity at 15.2 pM (Homo sapiens, ASPC1, read-out: Proliferation, RMC-7977 with or without CYPA inhibitor (panel title not shown), ASPC1, RMC-7977 alone, 0.0152 nM) was 102% and the activity at 45.7 pM (Homo sapiens, ASPC1, read-out: Proliferation, RMC-7977 with or without CYPA inhibitor (panel title not shown), ASPC1, RMC-7977 alone, 0.0457 nM) was 92.6%. For the same molecule, the activity at 0.00041 µM (Homo sapiens, ASPC1, read-out: Proliferation, RMC-7977 with or without CYPA inhibitor (panel title not shown), ASPC1, RMC-7977 alone, 0.41 nM) was 84.8%, the activity at 0.0037 µM (Homo sapiens, ASPC1, read-out: Proliferation, RMC-7977 with or without CYPA inhibitor (panel title not shown), ASPC1, RMC-7977 alone, 3.70 nM) was 47.4% and the activity at 0.01111 µM (Homo sapiens, ASPC1, read-out: Proliferation, RMC-7977 with or without CYPA inhibitor (panel title not shown), ASPC1, RMC-7977 alone, 11.11 nM) was 29.5%. For the same molecule, the activity at 0.03333 µM (Homo sapiens, ASPC1, read-out: Proliferation, RMC-7977 with or without CYPA inhibitor (panel title not shown), ASPC1, RMC-7977 alone, 33.33 nM) was 12.8%, the activity at 0.1 µM (Homo sapiens, ASPC1, read-out: Proliferation, RMC-7977 with or without CYPA inhibitor (panel title not shown), ASPC1, RMC-7977 alone, 100.00 nM) was 7.14% and the activity at 0.3 µM (Homo sapiens, ASPC1, read-out: Proliferation, RMC-7977 with or without CYPA inhibitor (panel title not shown), ASPC1, RMC-7977 alone, 300.00 nM) was 14.9%. The activity at 5.08 pM (Homo sapiens, ASPC1, read-out: Proliferation, RMC-7977 with or without CYPA inhibitor (panel title not shown), ASPC1, RMC-7977 alone, […]) was 101%, the activity at 0.00041 µM (Homo sapiens, ASPC1, read-out: pERK inhibition in PPIA KO cells treated with RMC-7977, AsPC-1, 0.41 nM) was 85.8% and the activity at 5.08 pM (Homo sapiens, ASPC1, read-out: pERK inhibition in PPIA KO cells treated with RMC-7977, AsPC-1, […]) was 109%. For the same molecule, the activity at 0.0037 µM (Homo sapiens, ASPC1, read-out: pERK inhibition in PPIA KO cells treated with RMC-7977, AsPC-1 PPIA KO, 3.70 nM) was 109%, the activity at 0.01111 µM (Homo sapiens, ASPC1, read-out: pERK inhibition in PPIA KO cells treated with RMC-7977, AsPC-1 PPIA KO, 11.11 nM) was 110% and the activity at 15.2 pM (Homo sapiens, NCI-H441, read-out: Proliferation inhibition in PPIA KO cells treated with RMC-7977, NCI-H441, 0.0152 nM) was 124%. For the same molecule, the activity at 45.7 pM (Homo sapiens, NCI-H441, read-out: Proliferation inhibition in PPIA KO cells treated with RMC-7977, NCI-H441, 0.0457 nM) was 124%, the activity at 0.0037 µM (Homo sapiens, NCI-H441, read-out: Proliferation inhibition in PPIA KO cells treated with RMC-7977, NCI-H441, 3.70 nM) was 33% and the activity at 0.01111 µM (Homo sapiens, NCI-H441, read-out: Proliferation inhibition in PPIA KO cells treated with RMC-7977, NCI-H441, 11.11 nM) was 24.4%. It also gave an activity at 0.03333 µM (Homo sapiens, NCI-H441, read-out: Proliferation inhibition in PPIA KO cells treated with RMC-7977, NCI-H441, 33.33 nM) of 22.2%.
